From publication PMC3548273, “Rodent Thyroid, Liver, and Fetal Testis Toxicity of the Monoester Metabolite of Bis-(2-ethylhexyl) Tetrabromophthalate (TBPH), a Novel Brominated Flame Retardant Present in Indoor Dust” (Environmental Health Perspectives, 2012) come the findings set out here.

Holding throughout (type): cell-based
Data set [1] addresses T1, PPARα (Mus musculus, UniProt P23204).
T1 construct: gene Ppara; FAO cells stably transfected with mouse PPARα
T1 sequence (P23204 1-468): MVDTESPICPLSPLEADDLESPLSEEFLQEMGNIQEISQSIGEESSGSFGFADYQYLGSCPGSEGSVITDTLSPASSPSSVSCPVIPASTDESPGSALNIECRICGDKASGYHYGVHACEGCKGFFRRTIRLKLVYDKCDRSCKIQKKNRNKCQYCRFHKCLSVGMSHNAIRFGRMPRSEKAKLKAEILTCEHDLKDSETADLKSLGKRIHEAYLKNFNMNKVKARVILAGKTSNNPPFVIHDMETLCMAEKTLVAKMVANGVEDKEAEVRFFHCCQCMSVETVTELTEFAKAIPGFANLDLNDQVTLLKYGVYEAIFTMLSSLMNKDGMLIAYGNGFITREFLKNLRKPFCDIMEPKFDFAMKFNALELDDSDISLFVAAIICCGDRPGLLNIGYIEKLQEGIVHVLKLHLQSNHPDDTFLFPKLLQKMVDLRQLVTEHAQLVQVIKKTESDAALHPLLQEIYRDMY
Kind of data set: AOX target gene expression (qPCR) in FAO-PPARα cells at […]. The settings on record: fao-pparalpha cells, 0.1 µM. A general note: Real-time PCR tracks product formation cycle by cycle.

Data set [2] addresses T1, PPARα. The description is as above. The settings on record: read-out: AOX target gene expression (qPCR) in FAO-PPARα cells at 100 μM.
Data set [3] addresses T2, PPARγ (Mus musculus, UniProt P37238).
T2 construct: gene Pparg
T2 sequence (P37238 1-505): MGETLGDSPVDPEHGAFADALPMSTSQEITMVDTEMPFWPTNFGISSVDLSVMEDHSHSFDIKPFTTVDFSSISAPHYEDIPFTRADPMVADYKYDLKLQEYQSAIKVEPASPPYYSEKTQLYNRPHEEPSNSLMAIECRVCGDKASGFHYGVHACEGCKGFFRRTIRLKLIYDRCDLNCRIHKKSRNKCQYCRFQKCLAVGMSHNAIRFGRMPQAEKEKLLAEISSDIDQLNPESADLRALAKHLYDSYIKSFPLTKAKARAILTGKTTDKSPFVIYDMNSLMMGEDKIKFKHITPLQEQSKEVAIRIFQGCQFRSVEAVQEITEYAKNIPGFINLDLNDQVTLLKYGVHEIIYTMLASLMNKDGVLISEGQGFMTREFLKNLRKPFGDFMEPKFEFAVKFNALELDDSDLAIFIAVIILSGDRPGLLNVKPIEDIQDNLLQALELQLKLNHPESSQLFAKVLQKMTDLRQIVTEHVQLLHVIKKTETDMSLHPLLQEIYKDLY
Kind of data set: FABP4 target gene expression (qPCR) in NIH 3T3 L1 cells at […]. The settings on record: NIH3T3, read-out: FABP4 target gene expression (qPCR) in NIH 3T3 L1 cells at 100 μM.

Data set [4] concerns the target T1, PPARα. Description: AOX target gene expression (qPCR) in FAO-PPARα cells.
Data set [5] concerns the target T2, PPARγ. Kind of data set: FABP4 target gene expression and lipid accumulation in NIH 3T3 L1 cells, with PPARγ shRNA knockdown.
In data set [6] the target is T2, PPARγ. Kind of data set: FABP4 target gene expression (qPCR) in NIH 3T3 L1 cells at […]. The settings on record: NIH3T3, read-out: FABP4 target gene expression (qPCR) in NIH 3T3 L1 cells at 100 nM.

Turning to `CC(C)(Sc1ccc(CCN(CCCCC2CCCCC2)C(=O)NC2CCCCC2)cc1)C(=O)O` [GW7647, 2-(4-(2-(1-(cyclohexanebutyl)-3-cyclohexylureido)ethyl)phenylthio)-2-methylpropionic acid], the “AOX target gene expression (qPCR) in FAO-PPARα cells at 100 nM” value at PPARα [1] came out at 4.9 ± 0.5 fold increase.
Turning to `CCCCC(CC)COC(=O)c1ccccc1C(=O)O` (stereo not drawn) [MEHP], the fold induction at 100 µM on PPARα [2] came to 5.4 ± 0.6; at PPARγ [3], 11.5 ± 2.7.
Take `CCCCC(CC)COC(=O)c1c(Br)c(Br)c(Br)c(Br)c1C(=O)O` (stereo not drawn) [TBMEHP]: the “AOX target gene expression (qPCR) in FAO-PPARα cells” value on PPARα [4] is “TBMEHP, but not TBPH, significantly up-regulated the expression of both FABP4 and AOX mRNA”. On PPARγ [5], the “FABP4 target gene expression and lipid accumulation in NIH 3T3 L1 cells, with PP” value is listed as “TBMEHP-induced expression of the PPARγ target gene, FABP4, was significantly impaired in PPARγ-shRNA transduced cells”.
As for `CN(CCOc1ccc(CC2SC(=O)NC2=O)cc1)c1ccccn1` (stereo not drawn) [rosiglitazone], the fold induction at 0.1 µM at PPARγ [6] amounted to 6 ± 1.4.
